Tested on: mice
Experiment: ELISA of antisera from mice immunized with CPT1PaTXL
Type: in vivo
Details: ten mice inoculated SC/IP with CPT1PaTXL (first two inoculations +PTA); any bleed, including the terminal bleed; TXL coupled to BSA for ELISA
Procedure: The hybridoma project began with a series of sequential inoculations by subcutaneous (SC) or interperitoneal (IP) injections of 100 μg of CPT1PaTXL formulated in PBS. In addition to the CPT1PaTXL, the first two inoculations also contained […] toxin as adjuvant (PTA). All subsequent inoculations were without PTA and had various amounts of CPT1PaTXL according to the following approximate schedule:
Ten mice were used in the immunization protocol. At each scheduled test bleed, 100 μl of blood was obtained from the tail, and an ELISA was conducted to evaluate reactivity against either Polyglutamate (PG) alone, Paclitaxel (TXL) or CT-2103. Because of the poor solubility of TXL in aqueous solutions, TXL was coupled to Bovine Serum Albumin, fraction V (Sigma Biochemicals, St. Louis Mo.) for ELISA testing. ELISA assays are performed as described in detail in Harlow, E. and Lane, D., Antibodies, A Laboratory Manual, Cold Spring Harbor Laboratory Press, 1988, pp. 564-569. Reactivity against the P. falciparum peptide epitope was analyzed following the terminal bleed.

CC(=O)O[C@H]1C(=O)[C@@]2(C)[C@H]([C@H](OC(=O)c3ccccc3)[C@]3(O)C[C@H](OC(=O)[C@H](O)[C@@H](NC(=O)c4ccccc4)c4ccccc4)C(C)=C1C3(C)C)[C@]1(OC(C)=O)CO[C@@H]1C[C@@H]2O [TXL, Paclitaxel]
antibody reactivity (anti-PG, anti-TXL, anti-CT-2103) in ELISA of test bleeds: no detectable
